Assays:
[1] = 101.33 kPa, Liquid
[2] = xn = mol fraction of the nth substance listed; settings: 101.33 kPa, Liquid, x2 = 0

Cc1cccnc1 [3-methylpyridine]
[1]
Settings | mass density [kg/m3] | viscosity [mPa·s]
293.15 K | 956 | 0.9459
303.15 K | 946.6 | 0.8318
313.15 K | 937.7 | 0.7352
323.15 K | 928.3 | 0.6565
333.15 K | 919.3 | 0.5936
343.15 K | 910.3 | 0.539

O [water] + Cc1cccnc1
[2]
Settings | mass density [kg/m3] | viscosity [mPa·s]
293.15 K | – | 1.002
303.15 K | – | 0.7977
313.15 K | – | 0.6532
323.15 K | 988 | 0.547
333.15 K | 983.2 | 0.4665
343.15 K | 977.8 | 0.404
